Experimental data: US20220241263A1, “PD-1 AXIS BINDING ANTAGONIST TO TREAT CANCER WITH GENETIC MUTATIONS IN SPECIFIC GENES” (Ares Trading S.A., priority 2019, published 2022)
Read-outs that look alike come from different tables or passages of the source.

Tests used:
[1] = test system: patients with advanced RCC (aRCC); test: Phase 3 clinical trial of avelumab in combination with axitinib versus sunitinib (NCT02684006); type: in vivo, human
Protocol: Patients will be stratified according to ECOG performance status (0 versus 1) and LDH (>1.5 ULN vs. ≤1.5 ULN). In arm A (avelumab in combination with axitinib), avelumab will be given as a 1 hour intravenous infusion (IV) every 2 weeks in a 6-week cycle. Axitinib will be given orally (PO) twice daily (BID), with or without food, on a continuous dosing schedule.
Axitinib treatment may be adjusted by dosing interruption with or without dose reduction. Intrapatient axitinib dose escalation may occur if the intrapatient escalation criteria are met.
Study Treatment: Axitinib will be given orally twice daily PO on a continuous daily dosing schedule. Avelumab will be given as a 1 hour intravenous infusion every 2 weeks in a 6-week cycle.
Tumor Assessments: Anti-tumor activity will be assessed by radiological tumor assessments and will be based on RECIST guidelines version 1.1 for primary and secondary endpoints and on immune-related RECIST (irRECIST) guidelines for exploratory endpoints. Tumor assessments will be performed every 6 weeks (Q6W) up to 1 year from first dose therapy; thereafter, tumor assessments will be performed every 2 cycles. […]

[2] = test system: patients with advanced renal cell carcinoma; test: CD8 immunohistochemistry study: PFS by number of CD8+ cells at the invasive margin in the phase 3 study; type: in vivo, human
Protocol: CD8 expression was assessed by immunohistochemistry using clone C8/144B and reported in terms of the number of CD8+ cells in relation to the total number of […] or at the invasive margin, with the median value as the cut point.

[3] = test system: patients with advanced renal cell carcinoma
Protocol: Tumor samples were collected from patients in Example 2 and were subject to whole exome sequencing to identify genetic mutations. Software tools BWA and a combination of MuTect, Vardict, Picard, and other vendor tools were used.
The Cox proportional hazards (PH) regression model was used to assess the dependence of progression-free survival (PFS) on mutational status of each gene. In addition, multivariate analysis was also carried out adjusting for age, sex and tumor mutation burden. […] Genes were filtered based on the following criteria: • A. Mutated at 5% or more in the B9991003 cohort • B. Interaction term P-value<0.05 in both model (1) and model (2), testing for treatment specific differences of the mutations on survival outcome. • C.

[4] = test system: patients with advanced renal cell carcinoma; remark: listed apart in the source
Text: Transcript levels were quantitated by the Personalis ACE Cancer Transciptome Analysis pipeline which uses STAR version 2.4.2a-p1 to align reads to the NCBI hs37d5 annotation 105 reference genome and produces Transcripts Per Million (TPM) values for each gene. TPM values were log2 transformed for further analysis.
Weighted Gene Co-Expression Network Analysis (WGCNA) was used to find co-expressed modules in the 720 baseline transcriptomic samples. […] The soft power of 6 was chosen based on goodness of fit to a scale-free network. A signed WGCNA network was constructed in R^37 with mergeCutHeight set to 0.25 and reassignThreshold set to 0. After removing non-coding genes and modules with size <10, 25 modules were identified. Gene signature scores were computed from the average expression of genes in a module. Univariate Cox Proportional Hazards (Cox PH) model was used to assess the dependence of PFS on each gene signature, which was categorized into high vs low groups according to median signature score. Multivariate analysis was also carried out adjusting for age and sex. Modules were annotated through identifying top enriched gene sets via hypergeometric tests using public gene set collections including the MSigDB Hallmark, GO Biological Process and LM22.
To assess the robustness of identified gene modules, next was carried out a consensus WGCNA analysis. […] The soft power of 6 was chosen based on goodness of fit to a scale-free network. 720 baseline data were randomly subsampled down to 80% of samples for 1,000 times. With each subsampled dataset, we constructed a co-expression network using the WGCNA procedure as described above. An adjacency matrix was constructed by counting the frequencies two genes were clustered into the same network module. A consensus network was then constructed using the new adjacency matrix via the standard WGCNA approach. Edges were then filtered by adjacency measure of 0.8. Modules with size <10 were removed. Consensus WGCNA identified 23 modules. Hypergeometric tests were then carried out to annotate modules as described above.
To refine the 306-gene immune response module, we selected genes annotated for immune-related functionality and had univariate Cox PH p-value <0.01 in the combination arm.

[5] = in vivo; cited from earlier work
[6] = patients with CDL163L1 mutation
[7] = patients with CDL163L1 wild type
[8] = patients with LOC728763 mutation
[9] = patients with LOC728763 wild type
[10] = patients with SPATA31C2 mutation
[11] = patients with SPATA31C2 wild type

What does the source list for `CCN(CC)CCNC(=O)c1c(C)[nH]c(/C=C2\C(=O)Nc3ccc(F)cc32)c1C` [sunitinib]?
patients had died ([1]; PD-L1-positive tumors, median follow-up for overall survival 11.6 and 10.7 months): 44 patients; objective response rate ([1]; patients with PD-L1-positive tumors): 25.5%; median PFS ([2]; high numbers of CD8+ cells at the invasive margin): 7.1 months; median PFS ([2]; low numbers of CD8+ cells): 11.1 months; HR for PFS, high vs low numbers of CD8+ cells at the invasive margin ([2]; within treatment arm): 1.42; Rate of PFS at 15 months ([3]; patients with ABCA1 mutation): 25%; Rate of PFS at 15 months ([3]; patients with ABCA1 wild type): 25%; Rate of PFS at 20 months ([3]; patients with ABCA1 wild type): 25%; Rate of PFS at 15 months ([3]; patients with ARVCF mutation): 43%; Rate of PFS at 20 months ([3]; patients with ARVCF mutation): 39%; Rate of PFS at 15 months ([3]; patients with ARVCF wild type): 22%; Rate of PFS at 20 months ([3]; patients with ARVCF wild type): 22%; Rate of PFS at 15 months [3, 6]: 15%; Rate of PFS at 20 months [3, 6]: 15%; Rate of PFS at 15 months [3, 7]: 25%; Rate of PFS at 20 months [3, 7]: 25%; Rate of PFS at 15 months ([3]; patients with DNMT1 mutation): 0%; Rate of PFS at 20 months ([3]; patients with DNMT1 mutation): 0%; Rate of PFS at 15 months ([3]; patients with DNMT1 wild type): 25%; Rate of PFS at 20 months ([3]; patients with DNMT1 wild type): 25%; Rate of PFS at 15 months ([3]; patients with FOXO1 mutation): 10%; Rate of PFS at 20 months ([3]; patients with FOXO1 mutation): 10%; Rate of PFS at 15 months ([3]; patients with FOXO1 wild type): 25%; Rate of PFS at 20 months ([3]; patients with FOXO1 wild type): 25%; Rate of PFS at 15 months ([3]; patients with IL16 mutation): 25%; Rate of PFS at 20 months ([3]; patients with IL16 mutation): 25%; Rate of PFS at 15 months ([3]; patients with IL16 wild type): 23%; Rate of PFS at 20 months ([3]; patients with IL16 wild type): 23%; Rate of PFS at 15 months [3, 8]: 25%; Rate of PFS at 20 months [3, 8]: 25%; Rate of PFS at 15 months [3, 9]: 23%; Rate of PFS at 20 months [3, 9]: 23%; Rate of PFS at 15 months ([3]; patients with MCR1 mutation): 30%; Rate of PFS at 15 months ([3]; patients with MCR1 wild type): 30%; Rate of PFS at 20 months ([3]; patients with MCR1 wild type): 30%; Rate of PFS at 15 months ([3]; patients with MYH7B mutation): 10%; Rate of PFS at 15 months ([3]; patients with MYH7B wild type): 25%; Rate of PFS at 20 months ([3]; patients with MYH7B wild type): 25%; Rate of PFS at 15 months ([3]; patients with PTEN mutation): 20%; Rate of PFS at 15 months ([3]; patients with PTEN wild type): 25%; Rate of PFS at 20 months ([3]; patients with PTEN wild type): 25%; Rate of PFS at 15 months [3, 10]: 25%; Rate of PFS at 20 months [3, 10]: 25%; Rate of PFS at 15 months [3, 11]: 23%; Rate of PFS at 20 months [3, 11]: 23%; Rate of PFS at 15 months ([3]; patients with STAB2 mutation): 30%; Rate of PFS at 20 months ([3]; patients with STAB2 mutation): 30%; Rate of PFS at 15 months ([3]; patients with STAB2 wild type): 25%; Rate of PFS at 20 months ([3]; patients with STAB2 wild type): 25%; median PFS ([4]; greater than median expression of JAVELIN Renal 101 Immuno Signature): 8.3 months; median PFS ([4]; less than median expression of JAVELIN Renal 101 Immuno Signature): 9.0 months; HR for PFS by tumor mutational burden (TMB) ([4]; within treatment arm): 0.79; HR for PFS, high expression of IMmotion 150 angiogenesis signature ([4]; within treatment arm): 0.64; HR for PFS, high vs low JAVELIN Renal 101 Angiogenesis Signature ([4]; within treatment arm): 0.56; HR for PFS, high vs low JAVELIN Renal 101 Immuno Signature ([4]; within treatment arm): 0.98

Which half-life [5] does the source give for “avelumab: an anti-PD-L1 IgG1 monoclonal antibody” here?
The half-life was 72 to 120 h.
